Assay results as given in article PMC4893628, “Chalcone-based Selective Inhibitors of a C4 Plant Key Enzyme as Novel Potential Herbicides” (Scientific Reports, 2016).
Where two headings read alike, the source gives them in different places.

How the values were obtained:
F. trinervia PEPC = target: T1, F. trinervia PEPC (Flaveria trinervia, UniProt P30694); assay: biochemical; type: biochemical
T1 construct: the full-length ppcA gene of PEPC from F. trinervia (EMBL-Bank X61304); made in house; host or cells: Escherichia coli BL21(DE3)
T1 sequence (P30694 1-966): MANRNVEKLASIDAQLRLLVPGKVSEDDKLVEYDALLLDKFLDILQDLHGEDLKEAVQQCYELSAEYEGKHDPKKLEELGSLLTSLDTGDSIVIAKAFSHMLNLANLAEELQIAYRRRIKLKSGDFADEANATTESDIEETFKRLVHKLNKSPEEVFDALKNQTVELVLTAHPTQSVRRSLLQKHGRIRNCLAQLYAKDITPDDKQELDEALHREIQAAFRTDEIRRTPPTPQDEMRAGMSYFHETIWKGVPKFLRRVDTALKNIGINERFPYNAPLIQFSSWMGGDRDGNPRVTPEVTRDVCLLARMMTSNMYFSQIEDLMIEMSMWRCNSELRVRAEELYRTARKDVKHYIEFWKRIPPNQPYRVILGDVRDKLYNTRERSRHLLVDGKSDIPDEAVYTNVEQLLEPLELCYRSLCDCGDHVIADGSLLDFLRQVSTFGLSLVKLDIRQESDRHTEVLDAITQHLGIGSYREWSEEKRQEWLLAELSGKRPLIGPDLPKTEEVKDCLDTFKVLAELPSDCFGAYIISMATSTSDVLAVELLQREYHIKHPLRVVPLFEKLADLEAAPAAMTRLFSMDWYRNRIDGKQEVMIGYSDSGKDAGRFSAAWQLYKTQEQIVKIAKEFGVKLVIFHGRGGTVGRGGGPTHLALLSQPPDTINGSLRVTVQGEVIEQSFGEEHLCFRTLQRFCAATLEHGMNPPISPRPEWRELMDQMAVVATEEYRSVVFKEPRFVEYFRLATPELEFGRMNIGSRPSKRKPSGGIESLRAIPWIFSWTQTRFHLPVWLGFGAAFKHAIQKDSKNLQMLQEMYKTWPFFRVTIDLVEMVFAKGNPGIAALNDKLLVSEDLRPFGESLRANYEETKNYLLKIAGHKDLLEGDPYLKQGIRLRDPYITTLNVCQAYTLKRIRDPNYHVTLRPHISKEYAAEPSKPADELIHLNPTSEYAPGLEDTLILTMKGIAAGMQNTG
Method: The IC50 values of small molecule compounds on F. pringlei and F. trinervia PEPCs were determined using PEPC coupled spectrophotometric assay. The amount of NADH oxidized by NADH-malate dehydrogenase was measured by the decrease in absorbance at 340 nm in a Beckman DU-800 spectrophotometer, thus the value is in proportion to the corresponding substrate conversion of the enzyme. […] The reactions were started by adding two folds of the Km value of PEP for each enzyme. The data were analyzed using GraFit (Erithacus Software, UK).

[1] = test system: Corynebacterium glutamicum ATCC13032; assay: Bacterial growth in microscale cultivation, C. glutamicum; type: cell-based; details: for activity at 5 µM / activity at 50 µM / activity at 500 µM / activity at 100 µM: Corynebacterium glutamicum; for Lag Phase: relative to control
Method: (§1) The following bacteria were cultivated in the presence of trans-chalcone derived inhibitors: Corynebacterium glutamicum ATCC13032[43], Escherichia coli K-12 MG1655[44], Pseudomonas putida KT2440[45], and Bacillus subtilis 168[46]. The growth of these bacteria was monitored in flower-well plates shaken at 1200 rpm as backscatter at 620 nm (gain 20) using a BioLector® microscale cultivation system (m2p labs, Baesweiler, Germany). For further experimental details please refer to the Supplementary Information.
(§2) medium or the appropriate minimal medium and shaken at 140 rpm overnight. For inoculation of
(§3) the main culture, cells equivalent to an optical density at 600 nm of 0.5 (C. glutamicum, E. coli,
(§4) and P. putida) or 0.25 (B. subtilis) in 800 µL medium were washed and resuspended in fresh
(§5) media. Inhibitor substances were dissolved in DMSO and added to the media to a final
(§6) Since the least polar trans-chalcone and 2’-hydroxychalcone precipitated in the growth media at
(§7) the highest concentrations, the maximal concentration of these compounds was reduced to 400
(§8) µM and 100 µM, respectively. The final backscatter at 620 nm, the growth rate (h-1), and the
(§9) duration of the lag phase of all cultures were determined in a BioLector microscale cultivation
(§10) system in comparison to negative controls supplemented with the solvent DMSO. A longer lag

Bacillus subtilis 168 = assay: Bacterial growth in microscale cultivation, B. subtilis; type: cell-based; details: for Lag Phase: relative to control
Method: as §1, §2, §3, §4, §5, §6, §7, §8, §9, §10

In the case of `O=C(/C=C/c1ccccc1)c1ccccc1O` [Compound 2, 2′-Hydroxychalcone], the “Selectivity C4/C3” value (F. trinervia PEPC; C4 PEPC over C3 isoform) is reported as 1.5 fold, the IC50 (F. trinervia PEPC; IC50 F. trinervia PEPC, C4 PEPC) is reported as 51.9 ± 15 µM and the activity at 5 µM ([1]; ATCC13032, read-out: Final Backscatter, complex medium, 5 µM, relative to control) is reported as 101%. It also gave an activity at 50 µM ([1]; ATCC13032, read-out: Final Backscatter, complex medium, 50 µM, relative to control) of 105%, an activity at 500 µM ([1]; ATCC13032, read-out: Final Backscatter, complex medium, 500 µM, relative to control) of 111% and an activity at 5 µM ([1]; ATCC13032, read-out: Final Backscatter, minimal medium, 5 µM, relative to control) of 102%. For the same compound, the activity at 50 µM ([1]; ATCC13032, read-out: Final Backscatter, minimal medium, 50 µM, relative to control) was 99.6%, the activity at 100 µM ([1]; ATCC13032, read-out: Final Backscatter, minimal medium, 100 µM, relative to control) was 101% and the activity at 500 µM ([1]; ATCC13032, read-out: Final Backscatter, minimal medium, 500 µM, relative to control) was 102%. The activity at 5 µM ([1]; ATCC13032, read-out: Growth rate, complex medium, 5 µM, relative to control) was 96.2%, the activity at 50 µM ([1]; ATCC13032, read-out: Growth rate, complex medium, 50 µM, relative to control) was 91.5% and the activity at 500 µM ([1]; ATCC13032, read-out: Growth rate, complex medium, 500 µM, relative to control) was 102%. The activity at 5 µM ([1]; ATCC13032, read-out: Growth rate, minimal medium, 5 µM, relative to control) was 101%, the activity at 50 µM ([1]; ATCC13032, read-out: Growth rate, minimal medium, 50 µM, relative to control) was 99.6% and the activity at 100 µM ([1]; ATCC13032, read-out: Growth rate, minimal medium, 100 µM, relative to control) was 101%. For the same compound, the activity at 500 µM ([1]; ATCC13032, read-out: Growth rate, minimal medium, 500 µM, relative to control) was 92.9%, the “Lag Phase” value ([1]; complex medium, 5 µM) was 98,4% and the “Lag Phase” value ([1]; complex medium, 50 µM) was 100,0%. For the same compound, the “Lag Phase” value ([1]; complex medium, 500 µM) was 101,1%, the “Lag Phase” value ([1]; minimal medium, 5 µM) was 98,7% and the “Lag Phase” value ([1]; minimal medium, 50 µM) was 102,6%. The “Lag Phase” value ([1]; minimal medium, 100 µM) was 104,2%, the “Lag Phase” value ([1]; minimal medium, 500 µM) was 124,3% and the activity at 5 µM (Bacillus subtilis 168; Bacillus subtilis, 168, read-out: Final Backscatter, complex medium, 5 µM, relative to control) was 96.4%. It also gave an activity at 50 µM (Bacillus subtilis 168; Bacillus subtilis, 168, read-out: Final Backscatter, complex medium, 50 µM, relative to control) of 97.6%, an activity at 100 µM (Bacillus subtilis 168; Bacillus subtilis, 168, read-out: Final Backscatter, complex medium, 100 µM, relative to control) of 112% and an activity at 500 µM (Bacillus subtilis 168; Bacillus subtilis, 168, read-out: Final Backscatter, complex medium, 500 µM, relative to control) of 75.6%. It also gave an activity at 5 µM (Bacillus subtilis 168; Bacillus subtilis, 168, read-out: Final Backscatter, minimal medium, 5 µM, relative to control) of 97.9%, an activity at 50 µM (Bacillus subtilis 168; Bacillus subtilis, 168, read-out: Final Backscatter, minimal medium, 50 µM, relative to control) of 95.5% and an activity at 100 µM (Bacillus subtilis 168; Bacillus subtilis, 168, read-out: Final Backscatter, minimal medium, 100 µM, relative to control) of 101%. For the same compound, the activity at 500 µM (Bacillus subtilis 168; Bacillus subtilis, 168, read-out: Final Backscatter, minimal medium, 500 µM, relative to control) was 70%, the activity at 5 µM (Bacillus subtilis 168; Bacillus subtilis, 168, read-out: Growth rate, complex medium, 5 µM, relative to control) was 91.2% and the activity at 50 µM (Bacillus subtilis 168; Bacillus subtilis, 168, read-out: Growth rate, complex medium, 50 µM, relative to control) was 97.7%. For the same compound, the activity at 100 µM (Bacillus subtilis 168; Bacillus subtilis, 168, read-out: Growth rate, complex medium, 100 µM, relative to control) was 118%, the activity at 5 µM (Bacillus subtilis 168; Bacillus subtilis, 168, read-out: Growth rate, minimal medium, 5 µM, relative to control) was 96.8% and the activity at 50 µM (Bacillus subtilis 168; Bacillus subtilis, 168, read-out: Growth rate, minimal medium, 50 µM, relative to control) was 113%. The activity at 100 µM (Bacillus subtilis 168; Bacillus subtilis, 168, read-out: Growth rate, minimal medium, 100 µM, relative to control) was 134%, the activity at 500 µM (Bacillus subtilis 168; Bacillus subtilis, 168, read-out: Growth rate, minimal medium, 500 µM, relative to control) was 98.7% and the “Lag Phase” value (Bacillus subtilis 168; complex medium, 5 µM) was 89,8%. For the same compound, the “Lag Phase” value (Bacillus subtilis 168; complex medium, 50 µM) was 100,0%, the “Lag Phase” value (Bacillus subtilis 168; complex medium, 100 µM) was 95,4% and the “Lag Phase” value (Bacillus subtilis 168; minimal medium, 5 µM) was 99,5%. For the same compound, the “Lag Phase” value (Bacillus subtilis 168; minimal medium, 50 µM) was 108,5%, the “Lag Phase” value (Bacillus subtilis 168; minimal medium, 100 µM) was 107,8% and the “Lag Phase” value (Bacillus subtilis 168; minimal medium, 500 µM) was 143,1%.
